From patent US20240367098A1, “CARBON DIOXIDE ABSORBENT, METHOD FOR RECOVERING CARBON DIOXIDE, AND APPARATUS FOR SEPARATING AND RECOVERING CARBON DIOXIDE” (MITSUBISHI GAS CHEMICAL COMPANY, INC., priority 2021, published 2024)

Assays:
Assay type in all cases: physicochemical
[1] = Acid dissociation constant (pKa) of amine compound (acid-base titration); conditions: 25±2° C., in purified water
Procedure: The acid dissociation constant of the amine compound was determined by the following method. • (1) Dissolving 0.2 g of the amine compound in 30 mL of the purified water. • (2) Calculating the acid dissociation constant (pKa) by titrating the solution obtained in the above (1) with the 0.1 N perchloric acid-acetic acid solution using the automatic potentiometric titrator (AT-610 produced by Kyoto Electronics Manufacturing Co., Ltd.).
Still, let the temperature at the time of measurement be 25±2° C.

[2] = Maximum endothermic temperature of amine compound (DSC); conditions: DSC 23 to 350° C., 10° C./minute, nitrogen; volatilization of the amine compound
Procedure: DSC measurements were performed on the amine compounds to measure the maximum endothermic temperature of the amine compounds as follows. First, a differential scanning calorimetry was performed on the amine compounds using a differential thermogravimetric analyzer (Product Name: DTG-60 produced by Shimadzu Corporation) under conditions of 23 to 350° C. of a measurement temperature range, 10° C./minute of a heating rate, and a nitrogen atmosphere. From the DSC curve obtained thereby, the temperature at which the endothermic amount associated with the volatilization of the amine compound reached the maximum was calculated, and the temperature thereof was used as the maximum endothermic temperature of the amine compound.

[3] = Amine value of amine compound (JIS K7237-1995 titration); conditions: 0.1 N perchloric acid-acetic acid titration
Procedure: The amine value was measured by the following measurement method in accordance with JIS K7237-1995. • (1) Dissolving 0.1 g of the amine compound in 20 mL of the acetic acid. • (2) Calculating the amine value by titrating the solution obtained in the above (1) with the 0.1 N perchloric acid-acetic acid solution using the automatic potentiometric titrator (AT-610 produced by Kyoto Electronics Manufacturing Co., Ltd.).

[4] = Maximum carbon dioxide (CO2) release temperature of amine compound (DSC after CO2 absorption from air); conditions: amine compound stood 24 hours in air at 23° C., 50% RH; DSC 23 to 250° C., 10° C./minute, nitrogen
Procedure: A carbon dioxide concentration meter and a petri dish were placed inside an openable desiccator (Internal Dimension: 370 mm×260 mm×272 mm). […] An initial concentration of carbon dioxide was adjusted to about 400 ppm. Then, the amine compound was removed from the desiccator to obtain the amine compound with carbon dioxide absorbed. The DSC measurement was performed on the amine compound with carbon dioxide absorbed as follows, to measure the maximum carbon dioxide release temperature of the amine compound. First, the differential scanning calorimetry was performed on the amine compound using the differential thermogravimetric analyzer (Product Name: DTG-60 produced by Shimadzu Corporation) under the conditions of 23 to 250° C. of a measurement temperature range, 10° C./minute of the heating rate, and the nitrogen atmosphere. From the DSC curve obtained thereby, the temperature at which the endothermic amount associated with the desorption of carbon dioxide reached the maximum was calculated, and the temperature thereof was used as the maximum carbon dioxide release temperature of the amine compound.

| Structure (SMILES) | pKa [1] | Maximum Endothermic Temperature [2] | Amine Value [3] | Maximum CO2 Release Temperature [4] |
| --- | --- | --- | --- | --- |
| NCCCNCC1CCCC(CNCCCN)C1 (stereo not shown) [1,3-BAC-BisAP] | 9.5 | – | – | – |
| NCCCN(CCCN)CC1CCCC(CN(CCCN)CCCN)C1 (stereo not shown) [1,3-BAC-tetraAP] | 9.8 | 298.2 °C | 890 mgKOH/g | 102.3 °C |
| NCCN1CCNCC1 [AEP, 2-aminoethylpiperazine] | 10.1 | 118.4 °C | 1154 mgKOH/g | 81.9 °C |
| NCCNCCNCCN [TETA, triethylenetetramine] | 10.3 | – | – | – |
